Laboratory results reported in the supplement of paper PMC10307832.

Experiments:
Experiment in all cases: relative viability (nuclei count vs DMSO), 5 days (fraction); higher = more cells survive
JZL-184 = compound: C1CN(CCC1C(C2=CC3=C(C=C2)OCO3)(C4=CC5=C(C=C4)OCO5)O)C(=O)OC6=CC=C(C=C6)[N+](=O)[O-] [JZL-184]
Summary of the method: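 Five library-drug doses spaced by √10 were pinned onto vehicle-anchored 1536-well plates of lung cancer cell lines that had been kept overnight at 37 °C. Cells went 5 days without medium change, then were fixed, permeabilised and Hoechst-stained together, imaged at 4× and counted by MetaXpress. Viability is the ratio of treated-well to vehicle-well nuclei, taken as a median over plates. Plates required control CV below 25% and at least one doubling.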

JZL-184 + Navitoclax = compound: C1CN(CCC1C(C2=CC3=C(C=C2)OCO3)(C4=CC5=C(C=C4)OCO5)O)C(=O)OC6=CC=C(C=C6)[N+](=O)[O-] [JZL-184] + CC1(C)CCC(c2ccc(Cl)cc2)=C(CN2CCN(c3ccc(C(=O)NS(=O)(=O)c4ccc(N[C@H](CCN5CCOCC5)CSc5ccccc5)c(S(=O)(=O)C(F)(F)F)c4)cc3)CC2)C1 [Navitoclax] (partner 0.5 µM)
Summary of the method: (§1)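 Cells from lung cancer lines were seeded into 1536-well plates and, one day later, dosed by pin tool. Treatments were either a single drug or a fixed dose of an anchor drug with five library-drug doses (not always all listed) in √10 steps. After 5 days, nuclei were stained in a one-step fixation (final 0.05% Triton X-100, 1% formaldehyde, 1 ug/ml Hoechst) and counted on 4× images, and relative viability is the treated-to-vehicle nuclei ratio, as the median of duplicate plates.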

JZL-184 + Foretinib = compound: C1CN(CCC1C(C2=CC3=C(C=C2)OCO3)(C4=CC5=C(C=C4)OCO5)O)C(=O)OC6=CC=C(C=C6)[N+](=O)[O-] [JZL-184] + COc1cc2c(Oc3ccc(NC(=O)C4(C(=O)Nc5ccc(F)cc5)CC4)cc3F)ccnc2cc1OCCCN1CCOCC1 [Foretinib] (partner 0.25 µM)
Summary of the method: as §1

JZL-184 + Lapatinib = compound: C1CN(CCC1C(C2=CC3=C(C=C2)OCO3)(C4=CC5=C(C=C4)OCO5)O)C(=O)OC6=CC=C(C=C6)[N+](=O)[O-] [JZL-184] + CS(=O)(=O)CCNCc1ccc(-c2ccc3ncnc(Nc4ccc(OCc5cccc(F)c5)c(Cl)c4)c3c2)o1 [Lapatinib] (partner 2 µM)
Summary of the method: as §1

JZL-184 + Pictilisib = compound: C1CN(CCC1C(C2=CC3=C(C=C2)OCO3)(C4=CC5=C(C=C4)OCO5)O)C(=O)OC6=CC=C(C=C6)[N+](=O)[O-] [JZL-184] + CS(=O)(=O)N1CCN(Cc2cc3nc(-c4cccc5[nH]ncc45)nc(N4CCOCC4)c3s2)CC1 [Pictilisib] (partner 1 µM)
Summary of the method: as §1

JZL-184 + Crizotinib = compound: C1CN(CCC1C(C2=CC3=C(C=C2)OCO3)(C4=CC5=C(C=C4)OCO5)O)C(=O)OC6=CC=C(C=C6)[N+](=O)[O-] [JZL-184] + C[C@@H](Oc1cc(-c2cnn(C3CCNCC3)c2)cnc1N)c1c(Cl)ccc(F)c1Cl [Crizotinib] (partner 1 µM)
Summary of the method: as §1

JZL-184 + Linsitinib = compound: C1CN(CCC1C(C2=CC3=C(C=C2)OCO3)(C4=CC5=C(C=C4)OCO5)O)C(=O)OC6=CC=C(C=C6)[N+](=O)[O-] [JZL-184] + C[C@]1(O)C[C@@H](c2nc(-c3ccc4ccc(-c5ccccc5)nc4c3)c3c(N)nccn32)C1 [Linsitinib] (partner 1 µM)
Summary of the method: as §1

JZL-184 + Alpelisib = compound: C1CN(CCC1C(C2=CC3=C(C=C2)OCO3)(C4=CC5=C(C=C4)OCO5)O)C(=O)OC6=CC=C(C=C6)[N+](=O)[O-] [JZL-184] + Cc1nc(NC(=O)N2CCC[C@H]2C(N)=O)sc1-c1ccnc(C(C)(C)C(F)(F)F)c1 [Alpelisib] (partner 2 µM)
Summary of the method: as §1

JZL-184 + Phenformin = compound: C1CN(CCC1C(C2=CC3=C(C=C2)OCO3)(C4=CC5=C(C=C4)OCO5)O)C(=O)OC6=CC=C(C=C6)[N+](=O)[O-] [JZL-184] + N=C(N)NC(=N)NCCc1ccccc1 [Phenformin] (partner 250 µM)
Summary of the method: as §1

JZL-184 + Decitabine = compound: C1CN(CCC1C(C2=CC3=C(C=C2)OCO3)(C4=CC5=C(C=C4)OCO5)O)C(=O)OC6=CC=C(C=C6)[N+](=O)[O-] [JZL-184] + Nc1ncn([C@H]2C[C@H](O)[C@@H](CO)O2)c(=O)n1 [Decitabine] (partner 2 µM)
Summary of the method: as §1

JZL-184 + Olaparib = compound: C1CN(CCC1C(C2=CC3=C(C=C2)OCO3)(C4=CC5=C(C=C4)OCO5)O)C(=O)OC6=CC=C(C=C6)[N+](=O)[O-] [JZL-184] + O=C(c1cc(Cc2n[nH]c(=O)c3ccccc23)ccc1F)N1CCN(C(=O)C2CC2)CC1 [Olaparib] (partner 8 µM)
Summary of the method: as §1

A549
relative viability (JZL-184; 0.04 µM): 1.1 | relative viability (JZL-184; 0.4 µM): 0.928 | relative viability (JZL-184; 1.265 µM): 1.01 | relative viability (JZL-184; 4 µM): 0.957 | relative viability (JZL-184 + Navitoclax; first compound 0.04 µM): 1.18 | relative viability (JZL-184 + Navitoclax; first compound 0.4 µM): 1 | relative viability (JZL-184 + Navitoclax; first compound 1.265 µM): 1.24 | relative viability (JZL-184 + Navitoclax; first compound 4 µM): 1.23 | relative viability (JZL-184 + Foretinib; first compound 0.04 µM): 1.23 | relative viability (JZL-184 + Foretinib; first compound 0.4 µM): 0.942 | relative viability (JZL-184 + Foretinib; first compound 1.265 µM): 1.06 | relative viability (JZL-184 + Foretinib; first compound 4 µM): 0.976 | relative viability (JZL-184 + Lapatinib; first compound 0.04 µM): 1.06 | relative viability (JZL-184 + Lapatinib; first compound 0.4 µM): 0.967 | relative viability (JZL-184 + Lapatinib; first compound 1.265 µM): 0.955 | relative viability (JZL-184 + Lapatinib; first compound 4 µM): 1.01 | relative viability (JZL-184 + Pictilisib; first compound 0.04 µM): 0.643 | relative viability (JZL-184 + Pictilisib; first compound 0.4 µM): 0.451 | relative viability (JZL-184 + Pictilisib; first compound 1.265 µM): 0.478 | relative viability (JZL-184 + Pictilisib; first compound 4 µM): 0.498 | relative viability (JZL-184 + Crizotinib; first compound 0.04 µM): 0.609 | relative viability (JZL-184 + Crizotinib; first compound 0.4 µM): 0.765 | relative viability (JZL-184 + Crizotinib; first compound 1.265 µM): 0.68 | relative viability (JZL-184 + Crizotinib; first compound 4 µM): 0.699 | relative viability (JZL-184 + Linsitinib; first compound 0.04 µM): 0.559 | relative viability (JZL-184 + Linsitinib; first compound 0.4 µM): 0.457 | relative viability (JZL-184 + Linsitinib; first compound 1.265 µM): 0.519 | relative viability (JZL-184 + Linsitinib; first compound 4 µM): 0.633 | relative viability (JZL-184 + Alpelisib; first compound 0.04 µM): 0.966 | relative viability (JZL-184 + Alpelisib; first compound 0.4 µM): 0.588 | relative viability (JZL-184 + Alpelisib; first compound 1.265 µM): 0.894 | relative viability (JZL-184 + Alpelisib; first compound 4 µM): 0.614 | relative viability (JZL-184 + Phenformin; first compound 0.04 µM): 0.195 | relative viability (JZL-184 + Phenformin; first compound 0.4 µM): 0.167 | relative viability (JZL-184 + Phenformin; first compound 1.265 µM): 0.164 | relative viability (JZL-184 + Phenformin; first compound 4 µM): 0.112 | relative viability (JZL-184 + Decitabine; first compound 0.04 µM): 0.278 | relative viability (JZL-184 + Decitabine; first compound 1.265 µM): 0.26 | relative viability (JZL-184 + Decitabine; first compound 4 µM): 0.273 | relative viability (JZL-184 + Olaparib; first compound 0.04 µM): 0.31 | relative viability (JZL-184 + Olaparib; first compound 0.4 µM): 0.288 | relative viability (JZL-184 + Olaparib; first compound 1.265 µM): 0.382 | relative viability (JZL-184 + Olaparib; first compound 4 µM): 0.367
